From publication PMC12406685, “Thiazole substitution of a labile amide bond—a new option toward antiplasmodial pantothenamide-mimics” (Antimicrobial Agents and Chemotherapy, 2025)
Read-outs that look alike come from different tables or passages of the source.

Tests used:
[1] = tested on: intraerythrocytic P. falciparum; test: In vitro parasite proliferation assay (SYBR Safe-based fluorescence); assay type: cell-based, Plasmodium falciparum (3D7 strain); conditions: for Antiplasmodial IC50 range, in words: 1 µM pantothenate; for IC50: Plasmodium falciparum, intraerythrocytic stage, 96 h
Method: Culturing of intraerythrocytic stage P. falciparum parasites (3D7 strain) was carried out using a method adapted from Trager and Jensen ([97]) and Allen and Kirk ([98]). Parasites were maintained within human, male or female, erythrocytes (typically Group O+, Rh+, 4% hematocrit) in RPMI-1640 medium (Thermo Fisher Scientific, catalogue number 72400120) supplemented with 25 mM HEPES, 11 mM glucose, 200 μM hypoxanthine, 24 μg/mL gentamicin and 6 g/L Albumax II on a horizontally rotating shaking incubator (New Brunswick Innova 42/[…]) at 37°C under an atmosphere of 96% nitrogen, 3% carbon dioxide, and 1% oxygen. To evaluate the effect of each compound on the in vitro proliferation of P. falciparum parasites, a SYBR Safe-based fluorescence assay was used as previously described ([32]). All pantothenamide-mimics tested were initially dissolved to a concentration of 200 mM in DMSO. The final DMSO concentration in the assay never exceeded 0.1% (vol/vol). Assays were performed using the same medium used to culture the parasites. […] Assays were set up with synchronous ring-stage P. falciparum-infected erythrocytes in 96-well microtiter plates. Parasites were synchronized using 5% (wt/vol) sorbitol ([100]). […] P. falciparum-infected erythrocytes incubated in the presence of 0.5 μM chloroquine were used as a non-proliferation control, and those incubated in the absence of compounds and chloroquine served as a 100% parasite proliferation control. To minimize “edge effects” ([101], [102]), the outermost rows and columns of the microtiter plates were not used in the proliferation assays and were filled with 200 μL of medium. The plates were then incubated at 37°C for 96 h under a low-oxygen atmosphere. At the end of the incubation, plates were frozen at -80°C to lyse the cells. […] The fluorescence in the non-proliferation control wells was subtracted from the fluorescence readings in the other wells prior to further analysis. Parasite proliferation, calculated as a percentage of the fluorescence measured in the test wells relative to the fluorescence measured in the 100% parasite proliferation control wells, was then plotted against the logarithm of the compound concentration. […] IC50 values (determined from the sigmoidal curves) were averaged from three independent experiments.

HsPanK3 = molecular target: T1, HsPanK3 (Homo sapiens, UniProt Q9H999); test: HsPanK kinetic assay (pyruvate kinase/lactic dehydrogenase coupled, NADH at 340 nm); assay type: biochemical; design: catalytic core domain of human PanK3 (amino acid residues 12–368); made in house; host or cells: E. coli BL21(DE3); conditions: for Substrate inhibition of HsPanK3: at rising substrate concentration (0–2,000 µM)
T1 sequence (Q9H999 12-368): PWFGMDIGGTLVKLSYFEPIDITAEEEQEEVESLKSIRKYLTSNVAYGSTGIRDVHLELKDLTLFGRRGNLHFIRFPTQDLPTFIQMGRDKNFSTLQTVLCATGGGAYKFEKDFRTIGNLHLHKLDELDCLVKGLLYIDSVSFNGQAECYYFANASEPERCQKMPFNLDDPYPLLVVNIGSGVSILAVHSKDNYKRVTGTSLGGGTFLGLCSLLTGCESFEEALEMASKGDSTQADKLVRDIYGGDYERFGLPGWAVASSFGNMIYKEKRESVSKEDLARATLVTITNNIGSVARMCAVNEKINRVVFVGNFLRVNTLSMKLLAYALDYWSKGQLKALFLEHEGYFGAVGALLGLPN
Method: The gene encoding the catalytic core domain of human PanK3 (amino acid residues 12–368) was synthesized and cloned into the pET28a(+) expression vector using the NdeI and BamHI restriction sites to produce an N-terminal His6-tagged protein (Bio Basic Inc.). The plasmid was transformed into E. coli BL21(DE3) cells, which were cultured in Terrific Broth (TB) medium containing 50 µg/mL kanamycin at 37°C. When the culture reached an optical density at 600 nm (OD600) of 0.6, protein expression was induced by adding 1.0 mM isopropyl β-D-thiogalactoside (IPTG), followed by incubation at 18°C for 17–18 h. The cells were then harvested and resuspended in lysis buffer (20 mM Tris-HCl, pH 7.5, 500 mM NaCl, 5 mM imidazole, 5% [vol/vol] glycerol) supplemented with 1 mM PMSF (phenylmethylsulfonyl fluoride) and lysozyme (5 mg/g of the cell pellet). The suspension was then sonicated on ice, and the resulting lysate was centrifuged twice at 54,000 × g for 30 min at 4°C.
The clarified supernatant was incubated with Ni-NTA resin (Cytiva) pre-equilibrated with lysis buffer containing 5 mM imidazole at 4°C. After binding, the resin was washed with lysis buffer containing 30 mM imidazole, then eluted with lysis buffer containing 250 mM imidazole. The eluted HsPanK3 protein was dialyzed against storage buffer (20 mM Tris-HCl, pH 7.5, 200 mM NaCl, 5% [vol/vol] glycerol) and concentrated. The purified protein was stored at −80°C. Protein purity was assessed using SDS-PAGE and deemed >50% (Fig. S4).
The enzyme assay was adapted from a previously described method ([103]), which links the production of ADP to the consumption of NADH through the enzymatic activities of pyruvate kinase and lactic dehydrogenase. Reactions were conducted in 96-well microtiter plates, and the decrease in NADH concentration was measured at 340 nm at 30 s intervals after incubation at 30°C. Each reaction mixture (200 µL) contained the desired compound (substrate) at variable concentrations (0–2,000 µM), ATP (1.5 mM), NADH (0.3 mM), phospho(enol)pyruvate (2.0 mM), MgCl2 (10 mM), KCl (20 mM), a commercial pyruvate kinase/lactic dehydrogenase mixture (12 units, Sigma-Aldrich), and pantothenate kinase (0.48 µM) in 50 mM Tris–HCl buffer (pH 7.6). The reaction was initiated with the addition of ATP. The kinetic parameters were determined by fitting the rate data into the Michaelis–Menten equation using GraphPad Prism 8.0 with nonlinear regressions. Data were collected from three independent experiments, each performed in triplicate to verify the trends and optimize the selected concentrations. The kinetic parameters were calculated from the most complete triplicate set of data, and errors represent SEM.

[2] = RPMI-1640 containing 1 µM pantothenate, mean ± SEM of three experiments, read-out: IC50 (µM) against Pf at 1 µM Pan
[3] = RPMI-1640 containing 100 µM pantothenate, read-out: IC50 (µM) against Pf at 100 µM Pan
[4] = relative to natural substrate pantothenate

| SMILES | Antiplasmodial IC50 range, in words [1] | IC50 [1, 2] [µM] | IC50 [1, 3] [µM] | kcat of HsPanK3 compared with that of pantothenate, in words (HsPanK3) | Fold lower kcat/Km of HsPanK3 compared to pantothenate (HsPanK3; [4]) | Ki (HsPanK3) [µM] | Substrate inhibition of HsPanK3 (HsPanK3) | Fold higher Km of HsPanK3 for compound compared to pantothenate (HsPanK3; [4]) [fold] |
| --- | --- | --- | --- | --- | --- | --- | --- | --- |
| CCCCc1csc(CNC(=O)[C@H](O)C(C)(C)CO)n1 [Compound 1a] | sub-micromolar range | 0.77 ± 0.1 | > 6.25 | same as |  |  |  |  |
| CCCCCc1csc(CNC(=O)[C@H](O)C(C)(C)CO)n1 [Compound 1c] |  | 2.3 ± 0.2 | > 25 | same as | ~ 3 fold |  |  |  |
| CC(C)(CO)[C@@H](O)C(=O)NCc1nc(CCc2ccccc2)cs1 [Compound 1e] | sub-micromolar range | 0.77 ± 0.09 | > 12.5 | slightly lower |  |  |  |  |
| CC(C)(CO)[C@@H](O)C(=O)NCc1csc(Cc2ccccc2)n1 [Compound 2c] |  | 2.4 ± 0.2 | > 25 | same as | ~ 3 fold | 2650 | Substrate inhibition |  |
| CC(C)(CO)[C@@H](O)C(=O)NCc1csc(-c2ccccc2)n1 [Compound 2e] | sub-micromolar range | 0.51 ± 0.02 | > 6.25 | same as |  | 4340 | Substrate inhibition | 2.8 |
| CC(C)(CO)[C@@H](O)C(=O)NCc1cnc(-c2ccccc2)s1 [Compound 3f] |  | 8 ± 0.7 | > 50 | slightly higher | ~ 3 fold |  |  |  |
